IC50 data for two molecules are collected here from patent US5478933A, “Benzodiazepine derivatives and their use as antagonists of cholecystokinin and/or gastrin receptors” (Merck Sharpe & Dohme Ltd., priority 1994, dated 1995).

In one assay the target is T1, CCK receptor (brain) (Cavia porcellus, UniProt H0VZC5).
T1 construct: the cortex was removed and homogenized in 25 mL ice-cold 0.32M sucrose; from tissue; host or cells: cortex of male Hartley guinea pigs, P2 membrane pellet
Briefly: CCK Receptor Binding (Brain), inhibition of 125I-CCK-8 binding. Particulars: guinea pig cortex membranes; 50 pM 125I-CCK-8; pH 6.5, 25° C., 2 hours. The arrangement: species or system guinea pig (male Hartley). The protocol: CCK-8 sulphated was radiolabelled and the binding was performed according to the description for the pancreas method with minor modifications.
Male Hartley guinea pigs (300-500 g) were sacrificed by decapitation and the cortex was removed and homogenized in 25 mL ice-cold 0.32M sucrose. The homogenates were centrifuged at 1000 g for 10 minutes and the resulting supernatant was recentrifuged at 20,000 g for 20 minutes. The P2 pellet was resuspended in binding assay buffer (20 mM HEPES, 5 mM MgCl2, 0.25 mg/ml bacitracin, 1 mM EGTA pH 6.5 at 25° C.), using a Teflon (trademark) homogenizer (5 strokes at 500 rpm) to give a final concentration of 10 mg original wet weight/1.2 ml buffer. For the binding assay, 50 μl of buffer (for total binding) or unlabelled CCK-8 sulphated to give a final concentration of 1 μM (for nonspecific binding) or the compounds of Formula I (for determination of inhibition of ^125 I-CCK-8 binding) and 50 μl of 500 pM ^125 I-CCK-8 (i.e. final concentration of 50 pM) were added to 400 μl of the membrane suspensions in microfuge tubes. All assays were run in duplicate. The reaction mixtures were incubated at 25° C. for 2 hours and then the reaction was terminated by rapid filtration (Brandell 24 well cell harvester) on Whatman GF/C filters with 3×5 ml washes of cold 100 mM NaCl. The radioactivity on the filters was counted with a LKB gamma counter. […]

For the next assay, the target named is T2, CCK receptor (pancreas) (Rattus norvegicus, UniProt P30551).
T2 construct: The whole pancreas was dissected free of fat tissue and was homogenized; from tissue; host or cells: whole pancreas of male Sprague-Dawley rats, membrane homogenate
T2 sequence (P30551 1-444): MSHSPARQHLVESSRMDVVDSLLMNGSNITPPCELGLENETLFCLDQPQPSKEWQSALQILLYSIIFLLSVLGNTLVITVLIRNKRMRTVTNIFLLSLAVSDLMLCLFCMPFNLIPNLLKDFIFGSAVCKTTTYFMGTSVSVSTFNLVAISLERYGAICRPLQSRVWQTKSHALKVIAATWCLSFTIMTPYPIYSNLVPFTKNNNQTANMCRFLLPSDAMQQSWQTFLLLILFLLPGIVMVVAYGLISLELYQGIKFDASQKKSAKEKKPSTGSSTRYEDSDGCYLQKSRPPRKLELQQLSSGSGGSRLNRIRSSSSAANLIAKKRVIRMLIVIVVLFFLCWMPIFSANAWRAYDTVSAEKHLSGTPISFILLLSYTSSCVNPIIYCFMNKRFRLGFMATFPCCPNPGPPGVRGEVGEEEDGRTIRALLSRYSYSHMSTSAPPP
Briefly: CCK Receptor Binding (Pancreas), inhibition of 125I-CCK-8 binding. Also noted: species or system rat (male Sprague-Dawley). As to conditions: rat pancreas membranes; 50 pM 125I-CCK-8; pH 6.5, 25° C., 2 hours. The protocol:
CCK-8 sulphated was radiolabelled with ^125 I-Bolton Hunter reagent (2000 Ci/mmole). Receptor binding was performed according to Chang and Lotti (Proc. Natl. Acad. Sci. 83, 4923-4926, 1986) with minor modifications.
Male Sprague-Dawley rats (150-200 g) were sacrificed by decapitation. The whole pancreas was dissected free of fat tissue and was homogenized in 25 volumes of ice-cold 10 mM N-2-hydroxyethyl-piperazine-N'-2-ethane sulphonic acid (HEPES) buffer with 0.1% soya bean trypsin inhibitor (pH 7.4 at 25° C.) with a Kinematica Polytron. The homogenates were centrifuged at 47,800 g for 10 min. Pellets were resuspended in 10 volumes of binding assay buffer (20mM (HEPES)), 1 mM ethylene glycol-bis-(β-aminoethylether-N,N'-tetraacetic acid) (EGTA), 5 mM MgCl2, 150 mM NaCl, bacitracin 0.25 mg/ml, soya bean trypsin inhibitor 0.1 mg/ml, and bovine serum albumin 2 mg/ml pH 6.5 at 25° C.) using a Teflon (trademark) homogenizer, 15 strokes at 500 rpm. The homogenate was further diluted in binding assay buffer to give a final concentration of 0.5 mg original wet weight/1 ml buffer. […] The radioactivity on the filters was counted with a LKB gamma counter. […]

Each structure is given as a SMILES string.

T1 sequence (H0VZC5 entry or part of it): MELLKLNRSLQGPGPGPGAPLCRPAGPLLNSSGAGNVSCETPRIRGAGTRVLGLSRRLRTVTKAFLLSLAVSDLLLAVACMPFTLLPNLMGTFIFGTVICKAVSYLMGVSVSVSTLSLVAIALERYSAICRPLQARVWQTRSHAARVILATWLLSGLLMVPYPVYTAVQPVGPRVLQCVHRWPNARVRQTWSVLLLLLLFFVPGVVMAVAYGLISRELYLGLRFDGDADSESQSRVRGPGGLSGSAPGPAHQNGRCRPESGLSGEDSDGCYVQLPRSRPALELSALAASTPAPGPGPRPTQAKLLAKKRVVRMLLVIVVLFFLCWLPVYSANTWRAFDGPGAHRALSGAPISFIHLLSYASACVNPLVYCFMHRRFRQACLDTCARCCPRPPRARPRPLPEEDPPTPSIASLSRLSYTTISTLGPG

In the case of `CC(C)CN1C(=O)C(NC(=O)Nc2cccc(-c3nn[nH]n3)c2)N=C(c2ccc(=O)[nH]c2)c2ccccc21` (racemic) [Example 1, N-[3(R,S)-2,3-Dihydro-1-(2-methylpropyl)-2-oxo-5-(6-oxo-1,6-dihydropyridin-3-yl)-1H-1,4-benzodiazepin-3-yl]-N'-[3-(tetrazol-5-yl)phenyl]urea], the concentration for half-maximal inhibition (IC50) on CCK receptor (brain) amounted to 19.2 nM; at CCK receptor (pancreas), 2680 nM.
Turning to `CC(C)CN1C(=O)C(NC(=O)Nc2cccc(-c3nn[nH]n3)c2)N=C(c2cc[nH]c(=O)c2)c2ccccc21` (racemic) [Example 2, N-[3(R,S)-2,3-Dihydro-1-(2-methylpropyl)-2-oxo-5-(2-oxo-1,2-dihydropyridin-4-yl)-1H-1,4-benzodiazepin-3-yl]-N'-[3-(tetrazol-5-yl)phenyl]urea], the half-maximal inhibitory concentration (IC50) stood at 23 nM on CCK receptor (brain) and 3380 nM on CCK receptor (pancreas).

A word on the IC50: it is the concentration that gives 50% inhibition. Read a low IC50 as inhibition by little substance.
